Results reported in PMC5372089, “Synthesis and biological evaluation of novel ursolic acid analogues as potential α-glucosidase inhibitors” (Scientific Reports, 2017).

target: T1, α-glucosidase from baker's yeast (Saccharomyces cerevisiae, UniProt P53341); assay: not given; set-up: method as in PMID 26406581; conditions: UA hydroxyl group oxidized into ketone; cited from earlier work
T1 sequence (P53341 whole entry): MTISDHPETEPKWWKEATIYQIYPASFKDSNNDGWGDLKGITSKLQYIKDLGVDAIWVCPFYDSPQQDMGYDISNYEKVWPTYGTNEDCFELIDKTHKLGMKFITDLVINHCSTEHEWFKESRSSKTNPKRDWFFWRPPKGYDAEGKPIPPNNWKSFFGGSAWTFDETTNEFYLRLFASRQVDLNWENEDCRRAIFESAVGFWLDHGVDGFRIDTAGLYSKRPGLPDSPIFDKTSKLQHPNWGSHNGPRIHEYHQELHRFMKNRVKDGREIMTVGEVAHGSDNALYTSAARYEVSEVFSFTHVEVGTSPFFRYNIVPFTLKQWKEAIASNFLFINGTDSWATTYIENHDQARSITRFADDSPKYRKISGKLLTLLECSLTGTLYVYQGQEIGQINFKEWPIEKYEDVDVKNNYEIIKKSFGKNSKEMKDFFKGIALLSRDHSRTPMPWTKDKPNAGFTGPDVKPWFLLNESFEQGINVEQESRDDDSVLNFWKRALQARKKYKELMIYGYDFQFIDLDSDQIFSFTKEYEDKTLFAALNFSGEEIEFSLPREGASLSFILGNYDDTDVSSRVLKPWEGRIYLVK

Molecule	IC50 [nM]
C[C@@H]1CC[C@]2(C(=O)O)CC[C@]3(C)C(=CCC4[C@@]5(C)CCC(=O)C(C)(C)C5CC[C@]43C)C2[C@H]1C (stereo partly drawn) [UA-O]	2470 ± 140

target: T1, α-glucosidase from baker's yeast; assay: In vitro α-glucosidase inhibition assay (PNPG substrate, absorbance at 405 nm); assay type: biochemical; conditions: not given
Experimental: In this assay, α-glucosidase from baker’s yeast has been selected and used in this model according to the procedure described in the previous study with a slight modification. The activity of α-glucosidase was determined by monitoring p-nitrophenol (PNP) released from p-nitrophenol-α-D-glycopyranoside (PNPG) at 405 nm. All examined samples of UA analogues were dissolved in DMSO to generate the stock solution, with the concentrations ranging from 5 μM to 4000 μM. During the enzyme inhibitory assay, each sample’s stock solution was diluted with 0.1 M phosphate buffer solution (pH = 6.8), and the final concentration of enzyme solution was 0.1 U/mL. Then 10 min pre-incubation at 37 °C was conducted. After that, the substrate (PNPG, 1 mmol/L) was added to initiate the reaction. The reaction was incubated for 30 min at 37 °C before it was terminated by adding 1 mol/L Na2CO3 solution, and the optical density value was measured at 405 nm by using a Multimodel Plate Reader (Infinite 200). Each assay was performed three times.
The enzyme activity was measured at a fixed substrate concentration, in which a series of sample concentrations were introduced. The IC50 value was […] relative to a control assay with no inhibitor added.
The α-glucosidase inhibition assay was performed according to the method of Worawalai[32] with a slight modification. The α-glucosidase enzyme (0.1 U/mL) and substrate (1 mM p-nitrophenyl-α-D-glucopyranoside) were dissolved in 0.1 M phosphate buffer, pH 6.8. 10 μL of each synthesized analogue (1 mg/mL in DMSO) was pre-incubated with 8 μL of α-glucosidase at 37 °C for 10 min. A 100 μL of substrate solution was then added to the reaction mixture, which was further incubated at 37 °C for 30 min. Then, the reaction was terminated by adding 100 μL of 1 M Na2CO3 solution. Enzymatic activity was quantified by measuring the absorbance at 405 nm with a use of a Multimodel Plate Reader (Infinite 200). The percentage of inhibition was calculated by using [(A0 − A1)/A0] × 100%, where A0 was the absorbance without the sample, and A1 was the absorbance with the sample. The IC50 value was determined from a plot of the percentage of inhibition versus the sample concentration.

Molecule	IC50 [µM]
C[C@@H]1CC[C@]2(C(=O)O)CC[C@]3(C)C(=CCC4[C@@]5(C)CC[C@H](O)C(C)(C)C5CC[C@]43C)C2[C@H]1C (stereo partly drawn) [UA, (1S,2R,4aS,6aS,6bR,10S,12aR) -10-hydroxy-1,2,6a,6b,9,9,12a-heptamethyl-1,2,3,4,4a,5,6,6a,6b,7,8,8a,9,10,11,12,12a,12b,13,14b-icosahydropicene-4a-carboxylic acid, reference compound]	5.08 ± 0.7
C[C@@H]1CC[C@]2(C(=O)O)CC[C@]3(C)C(=CCC4[C@@]5(C)CC[C@H](OC(=O)c6ccccc6)C(C)(C)C5CC[C@]43C)C2[C@H]1C (stereo partly drawn) [UA-01]	4.98 ± 0.21
C[C@@H]1CC[C@]2(C(=O)O)CC[C@]3(C)C(=CCC4[C@@]5(C)CC[C@H](OC(=O)c6ccco6)C(C)(C)C5CC[C@]43C)C2[C@H]1C (stereo partly drawn) [UA-02]	2.51 ± 0.02
C[C@@H]1CC[C@]2(C(=O)O)CC[C@]3(C)C(=CCC4[C@@]5(C)CC[C@H](OC(=O)C(Cl)Cl)C(C)(C)C5CC[C@]43C)C2[C@H]1C (stereo partly drawn) [UA-03]	6.72 ± 0.33
C[C@@H]1CC[C@]2(C(=O)O)CC[C@]3(C)C(=CCC4[C@@]5(C)CC[C@H](OC(=O)c6ccc(Br)cc6F)C(C)(C)C5CC[C@]43C)C2[C@H]1C (stereo partly drawn) [UA-04]	3.94 ± 0.1

same assay, conditions: UA ester derivatives (Table 1); enzyme 0.1 U/mL, PNPG 1 mM, pH 6.8, 37 °C; mean ± SD; read-out: IC50

IC50 [µM]	Molecule
15.2 ± 0.47	(1S,2R,4R,6aS,6bR,10S,12aR)-1,2,6a,6b,9,9,12a-heptamethyl-10-((4-methylpiperazine-1-carbonyl) oxy)-1,2,3,4,4a,5,6,6a,6b,7,8,8a,9,10,11,12,12a,12b,13,14b-icosahydropicene-4-carboxylic acid [UA-05]

same assay, conditions: UA-O and analogues UA-O-a~UA-O-j (Table 2); enzyme 0.1 U/mL, PNPG 1 mM, pH 6.8, 37 °C; mean ± SD; read-out: IC50

IC50 [µM]	Molecule
0.71 ± 0.04	(1S,2R,4R,6aS,6bR,12aR)-1,2,6a,6b,9,9,12a-heptamethyl-10-oxo-11-((Z)-4-(trifluoromethyl) benzylidene)-1,2,3,4,4a,5,6,6a,6b,7,8,8a,9,10,11,12,12a,12b,13,14b-icosahydropicene-4-carboxylic acid [UA-O-i]
1.27 ± 0.2	(1S,2R,4R,6aS,6bR,12aR)-1,2,6a,6b,9,9,12a-heptamethyl-11-((Z)-4-methylbenzylidene)-10-oxo-1,2,3,4,4a,5,6,6a,6b,7,8,8a,9,10,11,12,12a,12b,13,14b-icosahydropicene-4-carboxylic acid [UA-O-j]
1.49 ± 0.14	(1S,2R,4R,6aS,6bR,12aR)-1,2,6a,6b,9,9,12a-heptamethyl-11-((Z)-4-nitrobenzylidene)-10-oxo-1,2,3,4,4a,5,6,6a,6b,7,8,8a,9,10,11,12,12a,12b,13,14b-icosahydropicene-4-carboxylic acid [UA-O-d]
3.22 ± 0.78	(1S,2R,4R,6aS,6bR,12aR)-11-((Z)-3-chlorobenzylidene)-1,2,6a,6b,9,9,12a-heptamethyl-10-oxo-1,2,3,4,4a,5,6,6a,6b,7,8,8a,9,10,11,12,12a,12b,13,14b-icosahydropicene-4-carboxylic acid [UA-O-e]
1.17 ± 0.09	(1S,2R,4R,6aS,6bR,12aR)-11-((Z)-benzylidene)-1,2,6a,6b,9,9,12a-heptamethyl-10-oxo-1,2,3,4,4a,5,6,6a,6b,7,8,8a,9,10,11,12,12a,12b,13,14b-icosahydropicene-4-carboxylic acid [UA-O-a]
4.87 ± 0.41	(1S,2R,4R,6aS,6bR,12aR,Z)-1,2,6a,6b,9,9,12a-heptamethyl-10-oxo-11-((6-(trifluoromethyl) pyridin-3-yl) methylene)-1,2,3,4,4a,5,6,6a,6b,7,8,8a,9,10,11,12,12a,12b,13,14b-icosahydropicene-4-carboxylic acid [UA-O-f]
10.3 ± 0.55	(1S,2R,4R,6aS,6bR,12aR,Z)-1,2,6a,6b,9,9,12a-heptamethyl-10-oxo-11-((E) -3-phenylallylidene)-1,2,3,4,4a,5,6,6a,6b,7,8,8a,9,10,11,12,12a,12b,13,14b-icosahydropicene-4-carboxylic acid [UA-O-b]
7.87 ± 0.34	(1S,2R,4R,6aS,6bR,12aR,Z)-1,2,6a,6b,9,9,12a-heptamethyl-10-oxo-11-(pyrazin-2-ylmethylene)-1,2,3,4,4a,5,6,6a,6b,7,8,8a,9,10,11,12,12a,12b,13,14b-icosahydropicene-4-carboxylic acid [UA-O-g]
3.32 ± 0.17	(1S,2R,4R,6aS,6bR,12aR,Z)-1,2,6a,6b,9,9,12a-heptamethyl-10-oxo-11-(thiazol-2-ylmethylene)-1,2,3,4,4a,5,6,6a,6b,7,8,8a,9,10,11,12,12a,12b,13,14b-icosahydropicene-4-carboxylic acid [UA-O-h]
7.49 ± 0.29	(1S,2R,4R,6aS,6bR,12aR,Z)-11-((E)-3-(4-fluorophenyl) allylidene)-1,2,6a,6b,9,9,12a-heptamethyl-10-oxo-1,2,3,4,4a,5,6,6a,6b,7,8,8a,9,10,11,12,12a,12b,13,14b-icosahydropicene-4-carboxylic acid [UA-O-c]

Molecule	IC50 [µM]
C[C@@H]1CC[C@]2(C(=O)O)CC[C@]3(C)C(=CCC4[C@@]5(C)CCC(=O)C(C)(C)C5CC[C@]43C)C2[C@H]1C (stereo partly drawn) [UA-O]	2.47 ± 0.14
